# Measurements reported in article PMC9698773, “Design, Synthesis, Molecular Modeling, and Anticancer Evaluation of New VEGFR-2 Inhibitors Based on the Indolin-2-One Scaffold” (Pharmaceuticals, 2022).
# Values joined by “and” are separate entries in the source; they are usually repeats but may differ in a detail not shown here. Equal values may be shown once.
# Legend:
# HepG2 cells = experiment: Cell cycle analysis (PI staining, flow cytometry); type: cell-based, human; details: HepG2, 1.13 µM, 24 h
# Procedure: The liver HepG2 cells were treated with 1.13 μM of 17a, and the effect on the cell cycle distribution was evaluated by flow cytometric analysis, as described in the Supplementary Materials. […]
# 4.2.3. Cell cycle analysis
# To determine the role of the synthesized compounds in cell cycle distribution, cell cycle analysis was performed using propidium iodide (PI) staining and flow cytometry analysis for compound 17a. A Flow Cytometry Kit for Cell Cycle Analysis (ab139418_Pro‐ pidium Iodide Flow Cytometry Kit/BD) was used in this test. HepG2 cells were treated with compound 17a (1.13 μM) for 24 h. Then, the cells were fixed in 70% ethanol at 4 °C for 12 h. After that, the cells were washed with cold PBS, incubated with 100 μl RNase A at 37 °C for 30 min, and stained with 400 μ l PI in the dark at room temperature for a further 30 min. The stained cells were measured using a BD FACSCalibur™ Flow Cytometer, and the data were analyzed using Flowing software (version 2.5.1, Turku Centre for Biotech‐
# BAX = BAX expression assay (Western blot); type: cell-based, human; details: HepG2, 1.13 µM, 24 h
# Procedure: The expression of BAX and Bcl-2 were evaluated in the HepG2 cells after treatment with 1.13 µM of compound 17a for 24 h. The Western blotting technique was utilized to determine the levels of Bax and Bcl-2 proteins and estimate the Bax/Bcl-2 ratio.
# The expression of apoptotic BAX and antiapoptotic Bcl-2 proteins in the liver HepG2 cells treated with 1.13 μM of 17a was determined using Western blot analysis, as described in the Supplementary Materials. […]
# Casp3 F: 5ʹ‐ […] ‐3ʹ
# Casp3 R: 5ʹ‐ […] ‐3ʹ […]
# β‐actin F: 5ʹ‐[…]‐3ʹ […]
# β‐actin R: 5ʹ‐[…]‐3ʹ […]
# 4.2.6. Bax and Bcl‐2 expression assay
# The expression of BAX and Bcl‐2 proteins were determined using Western blot anal‐ ysis. In brief, HepG2 cells were treated with control or with the synthesized compound 17a (1.13 μM). Then cells were lysed in 250 μL precold lysis buffer (pH 7.4: Tris‐Base [10 mM], NaCl [100 mM], ethylenediaminetetraacetic acid [EDTA, 25 mM], ethylene glycol bis (2‐ aminoethyl) tetraacetic acid [EGTA, 25 mM], 1% [v/v] NP‐40, and 1% [v/v] Triton X‐100) supplemented with 1:350 protease:phosphatase inhibitors cocktail (Sigma). The cells were immediately frozen at −20°C for 1.5 hours for further analysis, collected by cell scraper, sonicated 3 × 10 seconds, and centrifuged (13000 rpm, 15 minutes). Total protein concentrations in the supernatant were colorimetrically determined using the Pierce 660 nm Protein Assay method (Thermo Fisher Scientific, Rockford, IL), with BSA as the stand‐ ard. Equal amounts of protein (25 μg) samples were mixed with SDS‐loading buffer (pH 6.8: Tris‐HCl [700 mM], dithiothreitol [DTT, 600 mM], sodium dodecyl sulfate [SDS, 12%], glycerol [60%], and bromophenol blue [0.012%]), denatured by boiling at 95°C for 10 minutes, allowed to cool on ice for 15 minutes, vigorously vortexed for 30 seconds, loaded into SDS‐polyacrylamide gel and separated by an electrophoresis unit (Cleaver Scientific Ltd, UK), and transferred onto polyvinylidene fluoride membranes (Bio‐Rad) for 35 minutes using a Trans‐Blot SD semi‐dry transfer cell (Bio‐Rad) at 250 mA and 22 V. Mem‐ branes were blocked with 5% (w/v) blotting grade dry milk (Bio‐Rad) in Tris‐buffered saline/Tween‐20 (TBS‐T) (pH 7.5: Tris‐base [20 mM], NaCl [150 mM], and 0.05% [v/v] Tween‐ 20) while shaken for 1.5 hour at RT, and then incubated with the corresponding primary antibody against BAX (Biovision, USA) and Bcl‐2 (Bioimaging, system, syngene, UK) for 9‐10 hours at 4°C in a humidified chamber. […] Means of the detected blot intensities were then quantified, analyzed by the combined Bio‐Rad Image Lab soft‐ ware and their corresponding background subtracted, with normalization to the corre‐ sponding bands density of β‐actin as the sampling loading control. […]
structure (smiles),measurement,setting,value
"O=C1Nc2ccccc2C1=Nc1ccc(C(=O)NNC(=S)Nc2ccccc2)cc1 [Compound 17a, 2-(4-((2-Oxoindolin-3-ylidene)amino)benzoyl)-N-phenylhydrazinecarbothioamide]",Cell Cycle Distribution %G0-G1,HepG2 cells,42.91%
same,Cell Cycle Distribution %G2/M,HepG2 cells,9.07%
same,Cell Cycle Distribution %S,HepG2 cells,48.02%
same,Cell Cycle Distribution %pre G1,HepG2 cells,46.38%
same,increase of cell population at S phase versus control,HepG2 cells,1.43 fold
same,phase of cell cycle arrest,HepG2 cells,S phase
same,increase of BAX expression versus control,BAX,2.69 fold and 2.7 fold
same,increase of BAX/Bcl-2 ratio versus control,BAX,5 fold
same,Protein Expression (Normalized to β-Actin) BAX,BAX; control 0.175,0.472
same,BAX/Bcl-2 Ratio,BAX; control 0.41,2.06
